According to patent publication US11672775B2, “Treprostinil prodrugs” (United Therapeutics Corporation, priority 2016, dated 2023):
Values after ≈ are worked out from the molar mass of the structure shown. “Also recorded” adds a separate entry of the source.

Assays:
[1] = Solution stability in vehicle (UPLC area %); format: physicochemical; conditions: for T0 Residual Treprostinil / Solution stability, T0 Purity: 20 mM sodium phosphate dibasic with 125 mM sodium chloride; for Solution stability, T0 Purity: ambient; for T24 Residual Treprostinil / T72 Residual Treprostinil / Solution stability, T24 hours Purity / Solution stability, T72 hours Purity: same vehicle
Protocol: (§1) Each prodrug was dissolved in a vehicle containing 20 mM sodium phosphate dibasic with 125 mM sodium chloride. Prodrugs were prepared at saturation concentrations by weighing 15-30 mg of prodrug in to a 4 mL clear glass vial and dissolving in an appropriate volume of vehicle (0.5-1.0 mL) to achieve a nominal saturation concentration of 30 mg/mL. The solutions were mixed for 23 hours on a rotating mixer. […] The resultant supernatant solutions were isolated from undissolved prodrug by centrifugation at 15000 RPM for 15 min. Supernatants were transferred to clear glass vials and stored at ambient temperature. […] The resultant samples were assayed against treprostinil to determine prodrug concentration. At each testing interval (0, 24, 72 hours) the supernatant was assayed for prodrug concentration and purity by area %.

[2] = Equilibrium solubility in vehicle; format: physicochemical; conditions: 20 mM sodium phosphate dibasic with 125 mM sodium chloride; for solubility thermodynamic at 23 h: read-out: Equilibrium solubility, T0 hours Concentration; for solubility thermodynamic at 24 h: read-out: Equilibrium solubility, T24 hours Concentration; for solubility thermodynamic at 72 h: read-out: Equilibrium solubility, T72 hours Concentration
Protocol: as §1

[3] = Stability in 200 mM potassium phosphate buffer (pH 7.4); format: physicochemical; conditions: 1 μM
Protocol: According to the earlier aqueous solution stability study, all prodrugs are stable in 20 mM Sodium Phosphate dibasic with 125 mM NaCl at saturation concentrations (3-30 mg/ml). Also, in the method development work, it was also observed that the most unstable prodrugs III, IV and XIV were stable in 200 mM potassium phosphate buffer (pH 7.4) at a low concentration of 1 μM.

Sprague Dawley rats [4] = experiment: Rat intraplantar injection model, thermal pain sensitivity (Example 9); format: in vivo, Sprague Dawley rat; conditions: both doses (1 and 100 μg/mL); both time points
Protocol: (§2) Male Sprague Dawley rats (n=112) were allocated into 14 groups of 8/group. The study was run in 2 cycles, on consecutive days, 7 groups per cycle. Each cycle was composed of a Saline group, PBS group, which served as the control, and also treprostinil at a dose of 100 μg/mL or 1 μg/mL.
(§3) Animals were administered 0.1 mL of test material by subcutaneous injection into the paw pad (Intraplantar injection) at time zero. Animals were subsequently evaluated for their response to mechanical (von Frey filaments) and thermal stimuli, 15 and 90 minutes post-injection. The von Frey test was conducted prior to the thermal test, which followed immediately within minutes for each animal. In addition, clinical observation scoring of the animal's reaction to injection was conducted. FIG. 16 schematically illustrates the study design.
The sensitivity of animals to a thermal pain stimulus was assessed immediately following the von Frey test. The time until withdrawal of the right-injected leg from a heat source was measured, and the lower (faster) the time of response represents a greater sensitivity to the stimulus. The test was performed 15 and 90 minutes post-Test Item injection.

Sprague Dawley rats [5] = experiment: Rat intraplantar injection model, von Frey test (Example 9); format: in vivo, Sprague Dawley rat; conditions: for sensitivity to mechanical stimulation vs similar doses of treprostinil: both doses
Protocol: as §2, §3
Mechanical pain sensitivity was tested using the von Frey test, which measures the withdrawal force threshold of the animals. The lower the force applied represents a greater sensitivity to the stimulus. The von Frey test was performed 15 and 90 minutes post-Test Item injection.

Sprague Dawley rats [6] = experiment: Rat intraplantar injection model, clinical observation score (Example 9); format: in vivo, Sprague Dawley rat; conditions: for clinical score: 15 min; for clinical score vs similar doses of treprostinil: both doses
Protocol: as §2, §3
A Clinical observation score was assigned by assessing for redness, swelling and paw placement.

[7] = aqueous buffer, thermodynamic from solid, T0 hours
[8] = aqueous buffer, thermodynamic from solid, T24 hours
[9] = aqueous buffer, thermodynamic from solid, T72 hours
[10] = 1 μg/mL or 100 μg/mL, 15 and 90 minutes post-injection
[11] = only the 1 μg/mL dose, both time points
[12] = 100 μg/mL (cycle 1), 90 minutes post-injection

| T0 Residual Treprostinil [1] [% Area] | Solution stability, T0 Purity [1] [% Area] | T24 Residual Treprostinil [1] [% Area] | T72 Residual Treprostinil [1] [% Area] | Solution stability, T24 hours Purity [1] [% Area] | Solution stability, T72 hours Purity [1] [% Area] | solubility thermodynamic at 23 h [2, 7] [µg/mL] | solubility thermodynamic at 24 h [2, 8] [µg/mL] | solubility thermodynamic at 72 h [2, 9] [µg/mL] | clinical score (Sprague Dawley rats [6]; 100 μg/mL (cycle 1)) | Compound | further results |
| --- | --- | --- | --- | --- | --- | --- | --- | --- | --- | --- | --- |
| 0.15 | 94.48 | 0.14 | 0.15 | 94.31 | 94.61 | 6100 (≈ 13.6 mM) | 6000 (≈ 13.4 mM) | 6200 (≈ 13.8 mM) | – | CCCCC[C@H](O)CC[C@@H]1[C@H]2Cc3cccc(OCC(=O)O)c3C[C@H]2C[C@H]1OC(=O)OC [Prodrug III, cyclopentyl methyl carbonate of treprostinil] | stability in buffer [3]: stable |
| – | 98.70 | – | – | 98.68 | 98.58 | 7400 (≈ 14.6 mM) | 7500 (≈ 14.8 mM) | 7400 (≈ 14.6 mM) | – | CCCCC[C@H](O)CC[C@@H]1[C@H]2Cc3cccc(OCC(=O)NC(CC(=O)O)C(=O)O)c3C[C@H]2C[C@H]1O (stereo partly drawn) [Prodrug XII, treprostinil aspartic acid amide] | – |
| 0.08 | 96.59 | 0.08 | 0.08 | 96.32 | 96.54 | 10000 (≈ 21.7 mM) | 10600 (≈ 23 mM) | 11300 (≈ 24.5 mM) | – | CCCCC[C@H](O)CC[C@@H]1[C@H]2Cc3cccc(OCC(=O)N[C@@H](C)C(=O)O)c3C[C@H]2C[C@H]1O [Prodrug X, treprostinil alanine amide] | – |
| 0.11 | 96.41 | 0.11 | 0.15 | 96.40 | 96.34 | – | – | – | non-zero | treprostinil monomethyl carbamate [Prodrug VIII] | thermal paw withdrawal time vs PBS group (Sprague Dawley rats [4]): trend toward reduction in the time of response; von Frey withdrawal force threshold vs PBS-treated group (Sprague Dawley rats [5]; [10]): no statistically significant difference; sensitivity to mechanical stimulation vs similar doses of treprostinil (Sprague Dawley rats [5]; both time points): statistically significant reduced sensitivity; clinical score vs PBS group (Sprague Dawley rats [6]; 100 μg/mL, both time points): not statistically significantly different; clinical score vs similar doses of treprostinil (Sprague Dawley rats [6]; both time points): reduced clinical score; Equilibrium solubility, T0 hours Concentration ([2]; T0 hours): 11000 µg/mL; Equilibrium solubility, T24 hours Concentration ([2]; T24 hours): 10500 µg/mL; Equilibrium solubility, T72 hours Concentration ([2]; T72 hours): 10900 µg/mL |
| – | 97.66 | – | – | 97.81 | 97.58 | 3200 (≈ 6.7 mM) | 3700 (≈ 7.75 mM) | 3800 (≈ 7.96 mM) | – | CCCCC[C@H](O)CC[C@@H]1[C@H]2Cc3cccc(OCC(=O)N[C@@H](CO)C(=O)O)c3C[C@H]2C[C@H]1O [Prodrug XIII, treprostinil serine amide] | solubility at 23 h ([2]; aqueous buffer, thermodynamic from solid, approximate, read-out: Solubility in the selected vehicle): ~3500 µg/mL (≈ 7.33 mM) |
| – | – | – | – | – | – | – | – | – | non-zero | CCCCC[C@H](O)CC[C@@H]1[C@H]2Cc3cccc(OCC(=O)O)c3C[C@H]2C[C@H]1OC(=O)N(C)C [Prodrug I, treprostinil ring carbamate] | von Frey withdrawal force threshold vs PBS-treated group (Sprague Dawley rats [5]; 1 μg/mL, both time points post-injection): no statistically significant difference; von Frey withdrawal force threshold vs PBS-treated group (Sprague Dawley rats [5]; 100 μg/mL, 15 minutes post-injection): no statistically significant difference; von Frey withdrawal force threshold vs PBS-treated group (Sprague Dawley rats [5]; 100 μg/mL, 90 minutes post-injection): statistically significant increased sensitivity; sensitivity to mechanical stimulation vs similar dose of treprostinil (Sprague Dawley rats [5]; [11]): reduced sensitivity; clinical score vs PBS group (Sprague Dawley rats [6]; [12]): non-zero; also recorded: statistically significant increase in the clinical score; clinical score vs similar dose of treprostinil (Sprague Dawley rats [6]; [11]): reduced clinical score |
| – | – | – | – | – | – | – | – | – | non-zero | CCCCC[C@@H](CC[C@@H]1[C@H]2Cc3cccc(OCC(=O)O)c3C[C@H]2C[C@H]1O)OC(=O)N(C)C [Prodrug II, treprostinil side-chain carbamate] | von Frey withdrawal force threshold vs PBS-treated group (Sprague Dawley rats [5]; [10]): no statistically significant difference; sensitivity to mechanical stimulation vs similar doses of treprostinil (Sprague Dawley rats [5]; both time points): statistically significant reduced sensitivity; clinical score vs PBS group (Sprague Dawley rats [6]; [12]): non-zero; clinical score vs PBS group (Sprague Dawley rats [6]; 100 μg/mL, both time points): not statistically significantly different; clinical score vs similar doses of treprostinil (Sprague Dawley rats [6]; both time points): reduced clinical score |
| – | 99.49 | – | – | 99.39 | 98.92 | 11500 (≈ 23.5 mM) | 11300 (≈ 23.1 mM) | 11500 (≈ 23.5 mM) | – | CCCCC[C@H](O)CC[C@@H]1[C@H]2Cc3cccc(OCC(=O)NC(C(=O)O)C(C)C)c3C[C@H]2C[C@H]1O (stereo partly drawn) [Prodrug XI, treprostinil valine amide] | – |
